Laboratory results from patent publication US12528777B2, “Quinazolinones derivatives for treatment of non-alcoholic fatty liver disease, preparation and use thereof” (Council of Scientific and Industrial Research, priority 2020, dated 2026).
Entries after “also recorded” stand apart in the source; their conditions may differ.

Key:
Assay type in all cases: cell-based
[1] = tested on: HepG2 cells; experiment: Confocal microscopy: lipid droplets in oleate induced HepG2 cells; parameters: key to Reduction in Lipid Droplets: + = slight or in insignificant; ++ = Moderate; +++ and ++++ = active; +++ and ++++ = active; +++++ = very active
Outline: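 HepG2 cells were loaded with 250 μM oleate and given compound in DMSO (10 μM screen; 10 nM–5 μM dose series) for 24 h; BSA as negative control. Lipid droplets stained with BODIPY/Hoechst, imaged confocally; mean droplets per cell counted over ~20 cells versus oleate-only cells.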

[2] = tested on: ATGL; experiment: Western blot of ATGL level in HepG2 cells; parameters: key to Increase in ATGL level: + = slight or in insignificant; ++ = Moderate; +++ and ++++ = active; +++ and ++++ = active; +++++ = very active; settings: HepG2 cells, western blot, score
Outline: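 HepG2 cells were treated with compound 24 h (10 μM screen; 50 nM–5 μM dose series) and lysed. 30 μg protein was western blotted for ATGL, with actin as loading reference. ATGL increase was expressed as percent of the 1.6-fold siCOP1 maximum and plotted against log concentration for EC50.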

[3] = tested on: ATGL; experiment: Immunoprecipitation assay of ATGL ubiquitination in myc-ATGL HepG2 cells; settings: 5 μM, 24 hours, MG-132, poly ubiquitin smear
Description: To this end, an immunoprecipitation assay was performed wherein HepG2 cells overexpressing myc-ATGL were transfected with HA-Ubiquitin and treated with 5 μM of the compounds 9, 10, 107, 215, 219 and 238. MG-132, a proteasomal inhibitor, was added 4 hours before harvesting the cells. Immune complexes were pulled down with anti-myc antibody and immunoblot was done using anti-HA antibody. The resultant smears on the blot reflect the ubiquitination status of ATGL.
For checking the change in the ubiquitination status of ATGL on compound treatment, Myc-ATGL expressing HepG2 cells (ATGL overexpressing cell line) was transfected with 2 μg of a plasmid harboring the HA tagged ubiquitin gene using Lipofectamine 2000 reagent (Invitrogen) in OptiMEM media (HiMedia). Fresh DMEM complete media was added after 8-10 hours of transfection. After roughly 24 hours of transfection, 5 μM of the compounds 9, 10 and 107 was added and cells were harvested post 24 hours of treatment. 4 hours prior to cell harvesting, 10 μM of proteasomal inhibitor MG132 (Calbiochem, Merck Millipore) was added to the cells. Proteins were isolated from the cells and protein concentration was estimated as described previously. 30 μl of PureProteome Protein A/G Mix Magnetic Beads (Merck Millipore) was taken in a 1.5 ml microcentrifuge tube, placed in a Magna Rack (Merck Millipore) and allowed to adhere to the side of the tube. 200 μg of protein was used for immunoprecipitation reaction in a reaction volume of 1 ml. 2 μl of anti-Myc primary antibody (Cell Signaling Technology) was added and the tube was incubated overnight at 4° C. in a rotary shaker. The next day, the tube was placed back in the Magna Rack and the beads were allowed to attach to the tube. To remove non-specific and unattached reactants, 1×PBS and 0.1% Triton-X was used for washing. 2× loading dye and Lysis Buffer was added and heated at 95° C. for 10 minutes to allow the immune complex to dislodge from the magnetic beads. Western Blot was performed subsequently as described before with anti-HA primary antibody for immunoblotting (Cell Signaling Technology). The activity trends of the synthesized compounds are disclosed in Table-5.

[4] = target: COP1 (Homo sapiens, UniProt Q8NHY2); experiment: Immunoprecipitation assay of COP1 autoubiquitination in HepG2 cells; settings: 5 μM, 24 hours, MG-132
Chain of COP1 (Q8NHY2 whole entry): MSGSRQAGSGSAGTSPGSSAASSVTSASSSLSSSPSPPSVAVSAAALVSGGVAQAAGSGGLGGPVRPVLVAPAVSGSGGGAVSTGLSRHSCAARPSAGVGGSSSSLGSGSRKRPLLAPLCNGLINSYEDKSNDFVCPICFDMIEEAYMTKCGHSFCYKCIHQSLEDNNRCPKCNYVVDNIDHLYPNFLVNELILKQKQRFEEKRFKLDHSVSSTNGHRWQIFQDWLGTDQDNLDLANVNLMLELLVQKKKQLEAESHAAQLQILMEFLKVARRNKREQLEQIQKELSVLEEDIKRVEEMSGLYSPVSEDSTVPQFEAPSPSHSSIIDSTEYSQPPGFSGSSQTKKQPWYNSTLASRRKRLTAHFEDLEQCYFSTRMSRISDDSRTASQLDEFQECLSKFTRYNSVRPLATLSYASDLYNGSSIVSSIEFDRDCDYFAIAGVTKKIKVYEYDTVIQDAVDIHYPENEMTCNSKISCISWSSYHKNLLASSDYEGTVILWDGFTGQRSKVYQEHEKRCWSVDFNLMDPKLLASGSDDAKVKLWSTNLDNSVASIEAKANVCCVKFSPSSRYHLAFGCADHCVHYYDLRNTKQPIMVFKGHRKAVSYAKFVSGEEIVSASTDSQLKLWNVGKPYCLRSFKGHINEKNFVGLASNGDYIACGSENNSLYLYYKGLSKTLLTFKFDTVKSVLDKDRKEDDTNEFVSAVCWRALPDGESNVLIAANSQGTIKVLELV
Description: COP1 is capable of auto ubiquitinating its own self and getting degraded via the proteasomal pathway. To probe into this, HepG2 cells were co-transfected with HA tagged Ubiquitin and myc-flag tagged COP1. The transfected cells were treated with 5 μM of compounds 9, 10, 107 and 238 for 24 hours. MG-132, a proteasomal inhibitor, was added 4 hours before harvesting the cells. Immune complexes were pulled down with anti-myc antibody and immunoblot was done using anti-HA antibody. […] Thus, the compounds of the present disclosure could be potent therapeutic targets by being able to block the proteasomal degradation of ATGL which would then be able to carry out its lipolytic action and reverse the symptoms of steatosis.
For checking the autoubiquitination status of COP1, HepG2 cells were cotransfected with 2 μg each of Myc-DDK-COP1 and HA-Ub plasmids using Lipofectamine 2000 reagent (Invitrogen) in OptiMEM media (HiMedia). The rest of the procedure is similar to that done for Myc-ATGL.

[5] = tested on: ATGL; experiment: Reversal of ATGL decrease in COP1 overexpressing HepG2 cells; settings: myc-DDK-COP1, 5 μM, 24 hours
Description: COP1 is an E3 ubiquitin ligase with ATGL as one of its targets for ubiquitination and subsequent proteasomal degradation by 26S proteasome. Therefore, it is only legit for ATGL levels to decrease upon COP1 overexpression. To this end, HepG2 cells were transfected with 500 ng of myc-DDK-COP1 plasmid using Lipofectamine 2000 and treated with 5 μM of the compounds 9 and 10 for 24 hours. 48 hours post transfection, cells were harvested and western blot was carried out.

**Q.** For COCCn1cnc2ccc(NC(=O)Nc3ccc(C(C)=O)cc3)cc2c1=O [Compound 10, 1-(4-acetylphenyl)-3-(3-(2-methoxyethyl)-4-oxo-3,4-dihydroquinazolin-6-yl)urea], which “Number of lipid droplets” value ([1]; HepG2 cells, 250 μM oleate induction) is on record?
**A.** Its value is “decrease in the number of lipid droplets”.

**Q.** And the “Reduction in Lipid Droplets” value ([1]; oleate induced HepG2 cells, score)?
**A.** The value was “++++”.

**Q.** What about the “Increase in ATGL level” value [2] of the same compound?
**A.** Its value is “++++”.

**Q.** And the “ATGL ubiquitination in HepG2 cells” value [3]?
**A.** The value was “reduction, however, could not be seen”.

**Q.** What about the “COP1 autoubiquitination in HepG2 cells” value [4] of the same compound?
**A.** Its value is “markedly reduce COP1's auto ubiquitination property”.

**Q.** What about the “Restoration of ATGL level upon COP1 overexpression” value [5] of the same compound?
**A.** Its value is “could restore the reduced ATGL level; also recorded: could restore ATGL to its normal level”.
